Patent US12268702B2, “Antitumor pharmaceutical composition comprising azvudine and chemotherapeutic agent” (HENAN GENUINE BIOTECH CO., LTD., priority 2023, dated 2025)

Tested on: A2058 xenograft tumor model
Assay: Human melanoma A2058 cell subcutaneous xenograft tumor model
Assay type: in vivo
Settings: azvudine 1 mg/kg, dacarbazine 60 mg/kg, combination 1 + 60 mg/kg; for Tumor volume (mm^3) on the 14th day: 14th day of administration
Procedure: Human melanoma cells A2058 (Cat. No.: CRL-11147) were cultured in vitro as a monolayer in DMEM medium containing 10% fetal bovine serum, 100 U/mL penicillin and 100 μg/mL streptomycin, in a 37° C. and 5% CO2 incubator. The cells were routinely digested with trypsin-EDTA and passaged twice a week. When the cell saturation reached 80%-90% and the cell number achieved the requirement, the cells were collected, counted and inoculated.
0.2 mL (5×10^6) of A2058 cells were added with Matrigel, and the mixture was subcutaneously inoculated on the right back of each mouse. The grouping administration was started when the average tumor volume reached about 136 mm^3.

[1] = based on tumor volume, 14th day

SMILES: CN(C)/N=N/c1[nH]cnc1C(N)=O [Dacarbazine, dacarbazine]
- Tumor volume (mm^3) on the 14th day: 1,255 ± 186 mm^3
- Tumor volume (mm^3) on the 14th day (listed as dacarbazine): 1255 mm^3
- T/C (%) [1]: 44.77%
- TGI (%) [1]: 56.74%
